Results published in patent publication US6541630B1 (priority 1997, dated 2003).

For `CC(=O)Nn1cnc2c(Br)csc2c1=O`, the melting point was 273 °C.

For `Nn1cnc2c(Br)csc2c1=O` [Compound 6d, 3-Amino-7-bromo-3,4-dihydrothieno[3,2-d]pyrimidin-4-one], the melting point was 181 to 183 °C.

Molecule `Cc1cc2ncn(C)c(=O)c2s1` has a melting point of 188 to 190 °C.

In the case of `O=c1[nH]cnc2cc(Br)sc12` [Compound 8a, 6-Bromo-3,4-dihydrothieno[3,2-d]pyrimidin-4-one], the melting point is reported as 238 to 240 °C.

`Cc1sc2c(=O)[nH]cnc2c1Br` gave a melting point of 320 to 322 °C.

`O=c1[nH]cnc2sc(Br)cc12` [Compound 6g, 6-Bromo-3,4-dihydrothieno[2,3-d]pyrimidine-4-one] showed a melting point of 301 to 304 °C.

`CC(=O)On1cnc2c(Br)csc2c1=O` gave a melting point of 159 to 162 °C.
